The source of these data is patent US9278134B2, “Dual functioning ionic liquids and salts thereof” (priority 2008, dated 2016).

Each structure is given as a SMILES string.

What all share (format): physicochemical
Series [1] is described as follows: Conductivity of propantheline p-toluenesulfonate (PtTos)/water composites. The text has this:
(§1) Viscosity, conductivity and ΔW values for various propantheline p-toluenesulfonate (PtTos)/water composites.

The nature of series [2]: Viscosity of propantheline p-toluenesulfonate (PtTos)/water composites. To be noted: * instrument limit.
From the text: as §1

Series [3] in a line: Walden plot: ΔW / degree of ionicity. To be noted: for degree of ionicity (ionized): estimated from the Walden plot (FIG. 7). From the text: Many examples of liquid organic salts are far from fully ionized. Instead, they form ion pairs and aggregates of ions in the liquid state and are better described as Liquid Ion Pairs than “Ionic Liquids”. The distinction between these states can be made on the basis of the behavior of the transport property data when plotted in a Walden plot. The Walden plot is a graph of log equivalent conductivity (corrected for molar volume) vs. log fluidity and thus may be used to estimate the degree of association cations and anions (as correlated motion of cation and anion clusters). […] Liquid Ion Pairs lie beyond this region, i.e., more than one order of magnitude away from the Ideal line. Such liquid salts are less than 10% ionized. Examples of such liquid salts of therapeutic ions include propanthaline tosylate which is about 1% ionized, as estimated from the Walden plot (FIG. 7).
With addition of 25 weight % water, ΔW value decreased. This is true for all of the propantheline p-toluenesulfonate/water systems studied.

Consider `CC(C)[N+](C)(CCOC(=O)C1c2ccccc2Oc2ccccc21)C(C)C` [PtTos pure, Propantheline p-Toluenesulfonate], for which the “Conductivity (S cm^−1)” value in series [1] is given as 5.41 × 10^−7 S cm^−1. In series [2], the “Viscosity (mPa · s) ± 1%” value is listed as >2000* mPa · s. Moreover, the “distance below the reference line in the Walden plot” value in series [3] (FIG. 7) came out at 2 log units. The “ΔW (distance form the ideal line)” value in series [3] (Walden plot, PtTos/water composites) was found to be 2.0. For the same compound, the “degree of ionicity (ionized)” value is “approximately 1%” in series [3] and “about 1%” in series [3] (listed as propanthaline tosylate).
